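Values below derive from 48-hour exposures of cells grown in 96-well plates, with endpoints linearly interpolated between the two concentrations bracketing the appropriate inhibition level. GI50 marks 50% less growth.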 Active and inactive are the calls of the source. Cut-off read from the data, not from the text of the source: active = GI50 up to about 1.1 µM and inactive = higher.
Assays:
Experiment in all cases: inhibition of tumour cell growth, NCI panel, 48 h
[1] = system: EKVX
[2] = system: SW-620
[3] = system: M19-MEL
[4] = system: NCI-H522
[5] = system: RXF 393
[6] = system: SK-MEL-28
[7] = system: SF-539
[8] = system: IGROV-1
[9] = system: CAKI-1
[10] = system: SNB-78
[11] = system: HOP-18
[12] = system: MDA-N
[13] = system: M14
[14] = system: TK-10
[15] = system: PC-3
[16] = system: ACHN
[17] = system: SR
[18] = system: MDA-MB-231
[19] = system: BT-549
[20] = system: MDA-MB-435

| SMILES | GI50 [1] | GI50 [2] | GI50 [3] | GI50 [4] | GI50 [5] | GI50 [6] | GI50 [7] | GI50 [8] | GI50 [9] | GI50 [10] | GI50 [11] | GI50 [12] | GI50 [13] | GI50 [14] | GI50 [15] | GI50 [16] | GI50 [17] | GI50 [18] | GI50 [19] | GI50 [20] |
| --- | --- | --- | --- | --- | --- | --- | --- | --- | --- | --- | --- | --- | --- | --- | --- | --- | --- | --- | --- | --- |
| COc1cc(O)c(Cc2ccccc2O)c(O)c1C(=O)CCc1ccccc1 [UVARETIN] | 6.19 µM (inactive) | 7.23 µM (inactive) | 6.07 µM (inactive) | 2.3 µM (inactive) | 6.07 µM (inactive) | 7 µM (inactive) | 5.41 µM (inactive) | 6.97 µM (inactive) | 5.24 µM (inactive) | 7.64 µM (inactive) | 0.713 µM (active) | – | – | – | – | – | – | – | – | – |
| CNC(=S)N/N=C(/C)CCC/C(C)=N/NC(=S)NC | 0.778 µM (active) | – | – | 0.728 µM (active) | – | > 34.6 µM (inactive) | > 100 µM (inactive) | 3.02 µM (inactive) | > 100 µM (inactive) | – | – | > 100 µM (inactive) | > 100 µM (inactive) | > 100 µM (inactive) | 3.71 µM (inactive) | > 80.7 µM (inactive) | 3.89 µM (inactive) | > 28.6 µM (inactive) | > 100 µM (inactive) | > 71.8 µM (inactive) |
| CSc1nc(NC2OC(CO)C(O)C(O)C2O)c(N)c(=O)n1C (centres undefined) | > 100 µM (inactive) | > 100 µM (inactive) | > 100 µM (inactive) | > 100 µM (inactive) | > 100 µM (inactive) | > 100 µM (inactive) | > 100 µM (inactive) | > 100 µM (inactive) | – | > 100 µM (inactive) | > 100 µM (inactive) | – | – | – | – | – | – | – | – | – |
| CC(=O)C(=O)NC1/C=C(C)\C=C/C(O)C/C=C(C)\C=C/C(O)CC2OC(=O)C1(C)C(=O)C2C (centres undefined) | > 100 µM (inactive) | > 100 µM (inactive) | > 100 µM (inactive) | > 100 µM (inactive) | > 100 µM (inactive) | > 100 µM (inactive) | > 100 µM (inactive) | > 100 µM (inactive) | > 100 µM (inactive) | > 100 µM (inactive) | > 100 µM (inactive) | – | – | – | – | – | – | – | – | – |
| C[n+]1ccc(Nc2ccc(NC(=O)c3ccc(Nc4cc[n+](C)c5ccc([N+](=O)[O-])cc45)cc3[N+](=O)[O-])cc2)cc1 | 45.7 µM (inactive) | > 100 µM (inactive) | 20 µM (inactive) | 16.6 µM (inactive) | – | 25.9 µM (inactive) | 22.8 µM (inactive) | – | > 75.3 µM (inactive) | – | 20.3 µM (inactive) | – | – | – | – | – | – | – | – | – |
| CO/N=C1/c2sccc2[C@H](NC(=O)C(Cc2ccccc2)NC(=O)OC(C)(C)C)[C@@H]1O (some centres undefined) | > 100 µM (inactive) | > 100 µM (inactive) | – | – | > 100 µM (inactive) | > 100 µM (inactive) | > 100 µM (inactive) | > 100 µM (inactive) | > 100 µM (inactive) | – | – | > 100 µM (inactive) | > 100 µM (inactive) | > 100 µM (inactive) | > 100 µM (inactive) | – | 49.5 µM (inactive) | > 100 µM (inactive) | > 100 µM (inactive) | > 100 µM (inactive) |
| Cc1cc(C)c2c(c1)CC1(Cc3c(C)ccc(C)c3C1=O)C2=O (centres undefined) | > 100 µM (inactive) | > 100 µM (inactive) | – | > 100 µM (inactive) | > 100 µM (inactive) | > 100 µM (inactive) | > 100 µM (inactive) | > 100 µM (inactive) | > 100 µM (inactive) | – | – | > 100 µM (inactive) | > 100 µM (inactive) | > 100 µM (inactive) | > 100 µM (inactive) | > 100 µM (inactive) | > 100 µM (inactive) | > 100 µM (inactive) | > 100 µM (inactive) | > 100 µM (inactive) |
| CCC1CN2CCc3cc(OC)c(OC)cc3C2CC1CC1c2cc(OC)c(OC)cc2CCN1C(=O)C(N)Cc1ccccc1.[O-][Cl+3]([O-])([O-])O (centres undefined) | 1.26 µM (inactive) | 0.49 µM (active) | – | 0.385 µM (active) | 1.65 µM (inactive) | 3.32 µM (inactive) | 2.56 µM (inactive) | – | 1.95 µM (inactive) | – | – | – | 0.628 µM (active) | 2.75 µM (inactive) | – | 2.88 µM (inactive) | 0.423 µM (active) | – | – | – |
| CCN(CC)CCCOC(=O)/C=C/c1c(C)[nH]c(=O)[nH]c1=O | > 625 µM (inactive) | > 625 µM (inactive) | > 625 µM (inactive) | > 625 µM (inactive) | > 99.1 µM (inactive) | > 625 µM (inactive) | > 625 µM (inactive) | > 625 µM (inactive) | > 625 µM (inactive) | 542 µM (inactive) | > 625 µM (inactive) | – | – | – | – | – | – | – | – | – |

From ChEMBL document CHEMBL1201862, “PubChem BioAssay data set” (2004)
